The text below walks through data of patent US9357773B2, “Herbicidal agents containing aclonifen” (BAYER CROPSCIENCE AKTIENGESELLSCHAFT, priority 2012, dated 2016).

Assay [1] concerns Lolium spp. resistant to HRAC group B. Put plainly: Greenhouse trial, post-emergence action against resistant ryegrass biotype (HRAC group B). The class given is in vivo. Particulars: post-emergence (PO, BBCH 11), about 3 weeks after application. As for the experimental part:
(§1) In the standard design of the test, seeds of various broad-leaved weed and weed grass biotypes (origins) were sown in a 8-13 cm diameter pot filled with natural soil of a standard field soil (loamy silt; non-sterile) and covered with a covering soil layer of about 1 cm. The pots were then cultivated in a greenhouse (12-16 h light, temperature day 20-22° C., night 15-18° C.) until the time of application. The pots were treated on a laboratory track sprayer with spray liquors comprising the compositions according to the invention, mixtures of the prior art or components used individually. Application of the active compounds or active compound combinations formulated as WG, WP, EC or otherwise was carried out at the appropriate growth stages of the plants. The amount of water used for spray application was 100-600 l/ha. After the treatment, the plants were returned to the greenhouses.
(§2) About 3 weeks after the application, the soil action or/and foliar action was assessed visually according to a scale of 0-100% in comparison to an untreated comparative group: 0%=no noticable effect compared to the untreated comparative group; 100%=full effect compared to the untreated comparative group.
(§3) (Notes: the term “seeds” also includes vegetative propagation forms such as, for example, rhizome pieces; abbreviations used: h light=hours of illumination, g of AS/ha=grams of active substance per hectare, l/ha=liter per hectare, S=sensitive, R=resistant) • 1. Pre-emergence action against weeds: seeds of various broad-leaved weed and weed grass biotypes (origins) were sown in a 8-13 cm diameter pot filled with natural soil of a standard field soil (loamy silt; non-sterile) and covered with a covering soil layer of about 1 cm. The pots were then cultivated in a greenhouse (12-16 h light, temperature day 20-22° C., night 15-18° C.) until the time of application. […]

Assay [2] has as its system Lolium spp. resistant to HRAC group A. The assay is described as follows: Greenhouse trial, post-emergence action against resistant ryegrass biotype (HRAC group A). The class given is in vivo. Particulars: post-emergence (PO, BBCH 11), about 3 weeks after application. As for the experimental part:
as §1, §2, §3

In the case of `O=C(Nc1ccc(F)cc1)c1cccc(Oc2cccc(C(F)(F)F)c2)n1` [(C) picolinafen, N-(4-fluorophenyl)-6-[3-(trifluoromethyl)phenoxy]-2-pyridinecarboxamide], the “effect (visual scale 0-100% vs untreated)” value in assay [1] (25 g of AS/ha) was found to be 5%; in assay [2] (25 g of AS/ha), 10%.
`Cn1nc(C(F)(F)F)c(CS(=O)(=O)C2=NOC(C)(C)C2)c1OC(F)F` [(B) pyroxasulfone, 3-[[[5-(difluoromethoxy)-1-methyl-3-(trifluoromethyl)-1H-pyrazol-4-yl]methyl]sulfonyl]-4,5-dihydro-5,5-dimethylisoxazole]: the “effect (visual scale 0-100% vs untreated)” value in assay [1] (13 g of AS/ha) stood at 70%; in assay [2] (13 g of AS/ha), 45%.
As to `Nc1c([N+](=O)[O-])ccc(Oc2ccccc2)c1Cl` [(A) aclonifen, 2-chloro-6-nitro-3-phenoxybenzenamine], the “effect (visual scale 0-100% vs untreated)” value is given as 50% in assay [1] (225 g of AS/ha) and 25% in assay [2] (225 g of AS/ha).
